US8524744B2, “Arylamine ketones, their preparation methods, the pharmaceutical composition containing them and their use” (Institute of Mataria Medica, Chinese Academy of Medical …, priority 2004, dated 2013)

System: polymorphonuclear leucocytes from rat pleural cavity
Test: release of β-glucuronidase by polymorphonuclear leucocytes from rat pleural cavity in vitro (PAF as irritant)
Format: cell-based
Method: 1% carrageenan was injected into the right pleural cavity of Wistar rat to induce polymorphonuclear leucocytes. The cells was suspended in Dulbecoo's buffer at the concentration of 2.5×10^6 cells·ml^1. The fluid containing the compound or solvent and 250 μl of cells suspension were added in test tube and incubated in 37° C. waterbath for 15 min. Then 2.5 μl of cytochalasin B (1×10^−3 mol·L^−1) was added and the reaction was continued for 5 min. Then 2.5 μl of PAF (1×10^−4 mol·L^−1) was added and for another 5 min. The test tubes were put into ice bath to stop the reaction. The supernatant was isolated and used as the β-glucuronidase release fluid. 25 μl of the enzyme fluid, 25 μl of phenolphthalein-glucuronic acid (2.5 mmol·L^−1) and 100 μl of acetic acid buffer (0.1 mol·L^−1) were added into each well of 96-well plate which was placed into incubater and kept at 37° C.3 for 18 hr. 150 μl of NaOH (0.3 mol·L^−1) was added in each well to cease the reaction and the optical density was read at 550 nm.

[1] = Dose 1 × 10^−5 mol · L^−1, Irritant 1 × 10^−6 mol · L^−1
[2] = Dose 1 × 10^−5 mol · L^−1, Irritant 1 × 10^−7 mol · L^−1

| Compound | Inhibition (%) of β-glucuronidase release [1] [%] | further results |
| --- | --- | --- |
| CCOC(=O)C1CCCN(CCC(=O)C=Cc2ccc(Cl)cc2)C1.Cl (stereo not shown) [Compound 13, 5-[(3-Ethoxycarbonyl)piperidyl]-1-(4-chloro)phenyl-1-penten-3-one hydrochloride] | 20.56 |  |
| Cl.O=C(C=Cc1ccc(F)cc1)CCN1CCC(Cc2ccccc2)CC1 [Compound 17, 5-[(4-Benzyl)piperidyl]-1-(4-fluorophenyl)-1-penten-3-one hydrochloride] | 37.64 |  |
| Cl.O=C(C=Cc1ccc(F)cc1)CCN1CCN(Cc2ccccc2)CC1 [Compound 44a, 5-[(N4-Benzyl)piperazyl]-1-(4-fluorophenyl)-1-penten-3-one hydrochloride] |  | Inhibition (%) of β-glucuronidase release (Dose 1 × 10^−5 mol · L^−1, Irritant 2 × 10^−7 mol · L^−1): 52.46% |
| 5-[(N4-Benzyl)piperazyl]-1-(3,4-dimethoxyphenyl)-1-penten-3-one hydrochloride [Compound 48] | 25.87 |  |
| CCOC(=O)C1CCN(CCC(=O)C=Cc2ccc(C#N)cc2)CC1.Cl [Compound 2, 5-[(4-Ethoxycarbonyl)piperidyl]-1-(4-cyanophenyl)-1-penten-3-one hydrochloride] |  | Inhibition (%) of β-glucuronidase release (Dose 2 × 10^−6 mol · L^−1, Irritant 1 × 10^−7 mol · L^−1): 126.36% |
| CCOC(=O)C1CCCN(CCC(=O)C=Cc2ccc(OC)c(O)c2)C1.Cl (stereo not shown) [Compound 14, 5-[(3-Ethoxycarbonyl)piperidyl]-1-(3-hydroxy-4-methoxyphenyl)-1-penten-3-one hydrochloride] | 36.65 |  |
| CCOC(=O)C1CCCN(CCC(=O)C=Cc2ccc(OC)c(OCC)c2)C1.Cl (stereo not shown) [Compound 12, 5-[(3-Ethoxycarbonyl)piperidyl]-1-(3-ethoxy-4-methoxyphenyl)-1-penten-3-one hydrochloride] |  | Inhibition (%) of β-glucuronidase release [2]: 181.48% |
| COc1ccc(C=CC(=O)CCN2CCN(Cc3ccccc3)CC2)cc1.Cl [Compound 49, 5-[(N4-Benzyl)piperazyl]-1-(4-methoxyphenyl)-1-penten-3-one hydrochloride] | 43.19 |  |
| CCOC(=O)C1CCN(CCC(=O)C=Cc2cc(OC)c(OC)c(OC)c2)CC1.Cl [Compound 6, 5-[(4-Ethoxycarbonyl)piperidyl]-1-(3,4,5-trimethoxyphenyl)-1-penten-3-one hydrochloride] | 39.53 |  |
| CCOC(=O)C1CCN(CCC(=O)C=Cc2ccc(O)c(OC)c2)CC1.Cl [Compound 8, 5-[(4-Ethoxycarbonyl)piperidyl]-1-(3-methoxy-4-hydroxyphenyl)-1-penten-3-one hydrochloride] |  | Inhibition (%) of β-glucuronidase release [2]: 158.42% |
| CCOC(=O)N1CCN(CCC(=O)C=Cc2ccc3c(c2)OCO3)CC1.Cl [Compound 32, 5-[(N4-Ethoxycarbonyl)piperazyl]-1-(3,4-methylenedioxyphenyl)-1-penten-3-one hydrochloride] |  | Inhibition (%) of β-glucuronidase release (Dose 1 × 10^−4 mol · L^−1, Irritant 2 × 10^−7 mol · L^−1): 46.1% |
| CCOc1cc(C=CC(=O)CCN2CCN(Cc3ccc4c(c3)OCO4)CC2)ccc1OC.Cl [Compound 55, 5-[N4-(3,4-Methylenedioxy(benzyl)piperazyl)]-1-(3-ethoxy-4-methoxy-phenyl)-1-penten-3-one hydrochloride] | 27.24 |  |
| 5-[N4-(3,4-Methylenedioxy(benzyl)piperazyl)]-1-(3,4,5-trimethoxy-phenyl)-1-penten-3-one hydrochloride [Compound 54] | 65.88 |  |
| CCOC(=O)C1CCN(CCC(=O)C=Cc2ccc(OCC)c(OC)c2)CC1.Cl [Compound 5, 5-[(4-Ethoxycarbonyl)piperidyl]-1-(3-methoxy-4-ethoxyphenyl)-1-penten-3-one hydrochloride] | 45.34 |  |
| CCOC(=O)N1CCN(CCC(=O)C=Cc2ccc(O)cc2)CC1.Cl [Compound 24, 5-[(N4-Ethoxycarbonyl)piperazyl]-1-(4-hydroxyphenyl)-1-penten-3-one hydrochloride] |  | Inhibition (%) of β-glucuronidase release [2]: 120.85% |
| 5-[(4-Ethoxycarbonyl)piperidyl]-1-(3,4-dimethoxyphenyl)-1-penten-3-one hydrochloride [Compound 4] | 28.05 |  |
